Measurements as given in PubChem BioAssay AID2060483 (Molecular Pharmacology Branch, DTP, NCI, 2025).
Each block holds one molecule with its values, some of them ahead of it.

Tested on: K24384-001-R-PDC complex spheroids, viability
Assay: Anticancer human tumor K24384-001-R-PDC patient-derived pancreatic adenocarcinoma cell line growth inhibition [GQUAD]
Conditions: for IC50: curve of first compound; for viability, T/C: stronger effect = lower value
Method in brief: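 Viability of tumor cells grown as complex spheroids with endothelial and stromal cells, exposed to drug combinations. Top concentration at or near clinical Cmax (else 10 microM), diluted in half-log increments.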

[1] = second compound 0.0316 µM, first compound 0.0316 µM
[2] = second compound 0.0316 µM, first compound 0.316 µM
[3] = second compound 0.1 µM, first compound 0.0316 µM
[4] = second compound 0.1 µM, first compound 0.316 µM
[5] = second compound 0.316 µM, first compound 0.0316 µM
[6] = second compound 0.316 µM, first compound 0.316 µM
[7] = second compound 1 µM, first compound 0.0316 µM
[8] = second compound 1 µM, first compound 0.316 µM
[9] = second compound 3.16 µM, first compound 0.0316 µM
[10] = second compound 3.16 µM, first compound 0.316 µM
[11] = second compound 10 µM, first compound 0.0316 µM
[12] = second compound 10 µM, first compound 0.316 µM
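Note: spheroids exposed to compounds for seven days.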

Structure (SMILES): Cn1ncnc1[C@H]1c2n[nH]c(=O)c3cc(F)cc(c23)N[C@@H]1c1ccc(F)cc1 + CN(C)c1ccc(Nc2c3ccc(NC(=O)CCN4CCCC4)cc3nc3cc(NC(=O)CCN4CCCC4)ccc23)cc1
- IC50 (second compound 0.0316 µM): > 0.316 µM
- IC50 (second compound 0.1 µM): > 0.316 µM
- IC50 (second compound 0.316 µM): > 0.316 µM
- IC50 (second compound 1 µM): > 0.316 µM
- IC50 (second compound 3.16 µM): > 0.316 µM
- IC50 (second compound 10 µM): > 0.316 µM
- viability, T/C (second compound 0.0316 µM, first compound 0.000999 µM): 101%
- viability, T/C (second compound 0.0316 µM, first compound 0.00316 µM): 82.2%
- viability, T/C (second compound 0.0316 µM, first compound 0.00999 µM): 108%
- viability, T/C [1]: 81.4%
- viability, T/C (second compound 0.0316 µM, first compound 0.0999 µM): 80.9%
- viability, T/C [2]: 86.1%
- viability, T/C (second compound 0.1 µM, first compound 0.000999 µM): 82.9%
- viability, T/C (second compound 0.1 µM, first compound 0.00316 µM): 125%
- viability, T/C (second compound 0.1 µM, first compound 0.00999 µM): 92.2%
- viability, T/C [3]: 81.2%
- viability, T/C (second compound 0.1 µM, first compound 0.0999 µM): 107%
- viability, T/C [4]: 93%
- viability, T/C (second compound 0.316 µM, first compound 0.000999 µM): 85.1%
- viability, T/C (second compound 0.316 µM, first compound 0.00316 µM): 89.5%
- viability, T/C (second compound 0.316 µM, first compound 0.00999 µM): 105%
- viability, T/C [5]: 70%
- viability, T/C (second compound 0.316 µM, first compound 0.0999 µM): 79.7%
- viability, T/C [6]: 77.3%
- viability, T/C (second compound 1 µM, first compound 0.000999 µM): 90.4%
- viability, T/C (second compound 1 µM, first compound 0.00316 µM): 91.2%
- viability, T/C (second compound 1 µM, first compound 0.00999 µM): 88%
- viability, T/C [7]: 87.1%
- viability, T/C (second compound 1 µM, first compound 0.0999 µM): 100%
- viability, T/C [8]: 69.4%
- viability, T/C (second compound 3.16 µM, first compound 0.000999 µM): 101%
- viability, T/C (second compound 3.16 µM, first compound 0.00316 µM): 85.7%
- viability, T/C (second compound 3.16 µM, first compound 0.00999 µM): 77.8%
- viability, T/C [9]: 92.3%
- viability, T/C (second compound 3.16 µM, first compound 0.0999 µM): 91.7%
- viability, T/C [10]: 65.5%
- viability, T/C (second compound 10 µM, first compound 0.000999 µM): 88.2%
- viability, T/C (second compound 10 µM, first compound 0.00316 µM): 75.1%
- viability, T/C (second compound 10 µM, first compound 0.00999 µM): 82.9%
- viability, T/C [11]: 118%
- viability, T/C (second compound 10 µM, first compound 0.0999 µM): 110%
- viability, T/C [12]: 54.8%

- IC50 (second compound 0.0316 µM): 0.0333 µM
- IC50 (second compound 0.1 µM): < 0.0316 µM
- IC50 (second compound 0.316 µM): < 0.0316 µM
- IC50 (second compound 1 µM): < 0.0316 µM
- IC50 (second compound 3.16 µM): < 0.0316 µM
- IC50 (second compound 10 µM): < 0.0316 µM
Structure (SMILES): CC1COCCN1c1cc(C2(O)CC3CCC(C2)O3)c2cnn(-c3ccn[nH]3)c2n1 (centres undefined) + Cc1cnc(CNC(=O)c2c(=O)c3ccc(N4CCCN(C)CC4)nc3n3c2sc2ccccc23)cn1
- viability, T/C [1]: 51.9%
- viability, T/C (second compound 0.0316 µM, first compound 0.1 µM): 39.6%
- viability, T/C [2]: 33.7%
- viability, T/C (second compound 0.0316 µM, first compound 1 µM): 25.1%
- viability, T/C (second compound 0.0316 µM, first compound 3.16 µM): 26.4%
- viability, T/C (second compound 0.0316 µM, first compound 10 µM): 12.3%
- viability, T/C [3]: 43.4%
- viability, T/C (second compound 0.1 µM, first compound 0.1 µM): 37.5%
- viability, T/C [4]: 31.1%
- viability, T/C (second compound 0.1 µM, first compound 1 µM): 32.4%
- viability, T/C (second compound 0.1 µM, first compound 3.16 µM): 26.3%
- viability, T/C (second compound 0.1 µM, first compound 10 µM): 10.8%
- viability, T/C [5]: 40.6%
- viability, T/C (second compound 0.316 µM, first compound 0.1 µM): 37.8%
- viability, T/C [6]: 31%
- viability, T/C (second compound 0.316 µM, first compound 1 µM): 31.9%
- viability, T/C (second compound 0.316 µM, first compound 3.16 µM): 23.6%
- viability, T/C (second compound 0.316 µM, first compound 10 µM): 10.8%
- viability, T/C [7]: 39.2%
- viability, T/C (second compound 1 µM, first compound 0.1 µM): 42.2%
- viability, T/C [8]: 31.2%
- viability, T/C (second compound 1 µM, first compound 1 µM): 26.7%
- viability, T/C (second compound 1 µM, first compound 3.16 µM): 18.1%
- viability, T/C (second compound 1 µM, first compound 10 µM): 8.33%
- viability, T/C [9]: 42.2%
- viability, T/C (second compound 3.16 µM, first compound 0.1 µM): 35.7%
- viability, T/C [10]: 29.5%
- viability, T/C (second compound 3.16 µM, first compound 1 µM): 27.2%
- viability, T/C (second compound 3.16 µM, first compound 3.16 µM): 16.4%
- viability, T/C (second compound 3.16 µM, first compound 10 µM): 8.63%
- viability, T/C [11]: 27.5%
- viability, T/C (second compound 10 µM, first compound 0.1 µM): 20.4%
- viability, T/C [12]: 23.7%
- viability, T/C (second compound 10 µM, first compound 1 µM): 19.4%
- viability, T/C (second compound 10 µM, first compound 3.16 µM): 6.65%
- viability, T/C (second compound 10 µM, first compound 10 µM): 0.55%
